Structures can show the parent of a compound that is named as a salt.
How the values were obtained:
LDL-r promoter = LDL-r promoter luciferase reporter assay in HepG2 cells; assay type: cell-based; settings: Homo sapiens; HepG2 cells stably transfected with LDL-r promoter-luciferase construct, 24 hours incubation, 2% lipoprotein-deficient serum; read-out: EC50 induction of luciferase activity
Method: HepG2 cells, stably transfected with a construct comprising the LDL-r promoter and the luciferase reporter gene, were seeded at 50.000 cells/well in 96 well plates. After 1 day, cells were incubated with compounds for 24 hours in RPMI medium containing 2% of lipoprotein-deficient serum. Compounds were tested from […]. Cell lysates were prepared and the luciferase activity was measured by the luciferase assay system (Promega). Induction of luciferase activity was calculated taking untreated cells as control. The ED50 of each compounds was determined compared to the ED50 of an internal standard.

| melting point [°C] | EC50 (LDL-r promoter) [nM] | Structure (SMILES) |
| --- | --- | --- |
| 188 |  | Cc1nc(-c2ccc(C#N)cc2)sc1C(=O)NCCCCN1CCC(c2ccc3c(c2OCCO)CCCC3)CC1 (as salt: hydrochloride) [Example 7, 2-(4-Cyano-phenyl)-4-methyl-thiazole-5-carboxylic acid (4-{4-[1-(2-hydroxy-ethoxy)-5,6,7,8-tetrahydro-naphthalen-2-yl]-piperidin-1-yl}-butyl)-amide, hydrochloride] |
| 157 to 159 |  | O=C(NCCCCN1CCC(c2ccc3c(c2OCCO)CCCC3)CC1)c1sc(-c2ccc(C(F)(F)F)cc2)nc1CO [Example 3, 4-Hydroxymethyl-2-(4-trifluoromethyl-phenyl)-thiazole-5-carboxylic acid (4-{4-[1-(2-hydroxy-ethoxy)-5,6,7,8-tetrahydro-naphthalen-2-yl]-piperidin-1-yl}-butyl)-amide] |
|  | 13 | Cc1nc(-c2ccc(Cl)cc2Cl)sc1C(=O)NCCCCN1CCC(c2ccc3c(c2OCCO)CCCC3)CC1 [Example 8, 2-(2,4-dichloro-phenyl)-4-methyl-thiazole-5-carboxylic acid (4-{4-[1-(2-hydroxy-ethoxy)-5,6,7,8-tetrahydro-naphthalen-2-yl]-piperidin-1-yl}-butyl)-amide] |
| 216 | 5 | CS(=O)(=O)Nc1ccc(-c2ccc(C(=O)NCCCCN3CCC(c4ccc5c(c4OCCO)CCCC5)CC3)cc2)cc1 [Example 12, 4′-Methanesulfonylamino-biphenyl-4-carboxylic acid (4-{4-[1-(2-hydroxy-ethoxy)-5,6,7,8-tetrahydro-naphthalen-2-yl]-piperidin-1-yl}-butyl)-amide] |
